The values below come from patent publication US6987117B2, “Antidepressant azaheterocyclylmethyl derivatives of 1,4-dioxino[2,3-b]pyridine” (Wyeth, priority 2001, dated 2006).

Molecules are shown by their SMILES. Counter-ions that a name gives are not always drawn.

The target in one data set is T1, human 5-HT1A receptors (Homo sapiens, UniProt P08908).
T1 construct: expressed in transfected cells; host or cells: CHO cells (stably transfected)
T1 sequence (P08908 1-422): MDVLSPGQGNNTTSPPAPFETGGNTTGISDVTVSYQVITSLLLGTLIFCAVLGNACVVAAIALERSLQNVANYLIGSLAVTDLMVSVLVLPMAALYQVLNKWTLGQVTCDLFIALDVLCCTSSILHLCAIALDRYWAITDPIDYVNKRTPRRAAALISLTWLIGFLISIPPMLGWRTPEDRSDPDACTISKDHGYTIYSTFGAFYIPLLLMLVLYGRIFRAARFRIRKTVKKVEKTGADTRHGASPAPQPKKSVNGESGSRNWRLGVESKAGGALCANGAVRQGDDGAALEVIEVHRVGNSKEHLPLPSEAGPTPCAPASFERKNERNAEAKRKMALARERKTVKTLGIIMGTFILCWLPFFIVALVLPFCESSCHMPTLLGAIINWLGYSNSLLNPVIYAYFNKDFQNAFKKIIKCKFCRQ
As to the kind of experiment: [3H] 8-OHDPAT displacement, 5-HT1A receptor affinity. In kind it is binding. The source says:
High affinity for the serotonin 5-HT1A receptor was established by testing the claimed compound's ability to displace [^3H] 8-OHDPAT (dipropylaminotetralin) from the 5-HT1A serotonin receptor following a modification of the procedure of Hall et al., J. Neurochem. 44, 1685 (1985) which utilizes CHO cells stably transfected with human 5-HT1A receptors.

In another data set the target is T2, serotonin transporter (Rattus norvegicus, UniProt P31652).
T2 construct: displace ^3H-paroxetine from male rat frontal cortical membranes; from tissue; host or cells: male rat frontal cortex membranes
T2 sequence (P31652 whole entry): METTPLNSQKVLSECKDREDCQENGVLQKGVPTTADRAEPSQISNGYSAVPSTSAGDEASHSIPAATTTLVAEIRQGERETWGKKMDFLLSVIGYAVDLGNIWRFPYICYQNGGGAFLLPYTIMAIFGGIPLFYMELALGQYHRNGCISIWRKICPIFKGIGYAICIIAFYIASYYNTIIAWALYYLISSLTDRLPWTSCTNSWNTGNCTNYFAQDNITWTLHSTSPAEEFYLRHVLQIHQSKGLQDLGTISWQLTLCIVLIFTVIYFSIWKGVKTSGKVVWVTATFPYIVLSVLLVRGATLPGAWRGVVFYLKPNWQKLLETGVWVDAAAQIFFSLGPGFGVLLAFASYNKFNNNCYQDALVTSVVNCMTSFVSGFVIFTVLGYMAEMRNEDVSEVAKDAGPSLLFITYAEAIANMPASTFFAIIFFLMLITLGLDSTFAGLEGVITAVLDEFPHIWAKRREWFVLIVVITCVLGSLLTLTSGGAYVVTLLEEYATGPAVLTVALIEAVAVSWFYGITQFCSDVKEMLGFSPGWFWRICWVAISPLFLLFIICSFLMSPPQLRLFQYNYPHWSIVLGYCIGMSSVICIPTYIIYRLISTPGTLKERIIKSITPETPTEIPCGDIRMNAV
As to the kind of experiment: 3H-paroxetine displacement, serotonin transporter affinity. In kind it is binding.

Data set [1] has as its target T3, cloned human 5-HT1A receptors (Homo sapiens, UniProt P08908).
T3 construct: expressed in transfected cells
T3 sequence (P08908 1-422): T1 sequence (P08908 1-422)
As to the kind of experiment: 35S-GTPγS binding assay, 5-HT1A antagonist activity. In kind it is biochemical. Conditions: reversal of standard agonist 8-OHDPAT; for IC50: read-out: 5-HT1A Function IC50. As for the experimental part:
Antagonist activity at 5-HT1A receptors was established by using a ^35S-GTPγS binding assay similar to that used by Lazareno and Birdsall (Br. J. Pharmacol. 109: 1120, 1993), in which the test compound's ability to affect the binding of ^35S-GTPγS to membranes containing cloned human 5-HT1A receptors was determined. Agonists produce an increase in binding whereas antagonists produce no increase but rather reverse the effects of the standard agonist 8-OHOPAT. The test compound's maximum inhibitory effect is represented as the Imax, while its potency is defined by the IC50.
On the technique in general: Binding of GTPγS marks nucleotide exchange on a G protein.

As to `C1=C(c2c[nH]c3ccccc23)CCN(C[C@H]2COc3cccnc3O2)C1` (as salt: oxalate) [Example 1], the melting point – broadly, the temperature of the solid-liquid transition – was found to be 116 °C.
Turning to `N#Cc1ccc2[nH]cc(C3=CCN(CC4COc5cccnc5O4)CC3)c2c1` (centres unmarked) [Example 3, 3-{1-[2,3-Dihydro[1,4]dioxino[2,3-b]pyridin-3-ylmethyl]-1,2,3,6-tetrahydro-4-pyridinyl}-1H-indole-5-carbonitrile], the affinity on human 5-HT1A receptors, expressed as Ki, was 22.4 nM. Affinity on serotonin transporter was put at a Ki of 2.58 nM. In addition, in data set [1], the “5-HT1A Function Imax (maximum inhibitory effect)” value was 100% and the IC50 (commonly the concentration that inhibits the measured activity by half) was found to be 183 nM.
`Fc1ccc2c(C3=CCN(CC4COc5cccnc5O4)CC3)c[nH]c2c1` (centres unmarked) (as salt: oxalate) [Example 4, 3-{[4-(6-Fluoro-1H-indol-3-yl)-3,6-dihydro-1(2H)-pyridinyl]methyl}-2,3-dihydro[1,4]dioxino[2,3-b]pyridine] returned a melting point of 120 °C.
Regarding `C1=C(c2c[nH]c3ccccc23)CCN(C[C@H]2COc3cccnc3O2)C1` [Example 1], the inhibition constant Ki (usually the equilibrium dissociation constant of an inhibitor or competing ligand from its target) at human 5-HT1A receptors worked out at 14.3 nM; at serotonin transporter, 9.5 nM. Further, in data set [1], the half-maximal inhibitory concentration (IC50) worked out at 197 nM.
For `Fc1ccc2c(C3=CCN(CC4COc5cccnc5O4)CC3)c[nH]c2c1` (centres unmarked) [Example 4, 3-{[4-(6-Fluoro-1H-indol-3-yl)-3,6-dihydro-1(2H)-pyridinyl]methyl}-2,3-dihydro[1,4]dioxino[2,3-b]pyridine], in that order: 10.2 nM, 1.21 nM and 618 nM.
For `Fc1ccc2[nH]cc(C3=CCN(CC4COc5cccnc5O4)CC3)c2c1` (centres unmarked) [Example 2, 3-{[4-(5-Fluoro-1H-indol-3-yl)-3,6-dihydro-1(2H)-pyridinyl]methyl}-2,3-dihydro{1,4]dioxino[2,3-b]pyridine], in that order: 6.81 nM, 2.39 nM and 57 nM.
In turn, `Fc1ccc2[nH]cc(C3=CCN(CC4COc5cccnc5O4)CC3)c2c1` (centres unmarked) (as salt: oxalate) [Example 2, 3-{[4-(5-Fluoro-1H-indol-3-yl)-3,6-dihydro-1(2H)-pyridinyl]methyl}-2,3-dihydro{1,4]dioxino[2,3-b]pyridine] had a melting point of 124 °C.
With `N#Cc1ccc2[nH]cc(C3=CCN(CC4COc5cccnc5O4)CC3)c2c1` (centres unmarked) (as salt: oxalate) [Example 3, 3-{1-[2,3-Dihydro[1,4]dioxino[2,3-b]pyridin-3-ylmethyl]-1,2,3,6-tetrahydro-4-pyridinyl}-1H-indole-5-carbonitrile], the melting point was determined as 165 °C.
